Where “and” joins values, the source holds several entries; their conditions need not be identical. Equal entries are not always repeated.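 Tested at 5 concentrations; 48 h exposure; 96-well plates; endpoints linearly interpolated, else capped at highest concentration. Abbreviation: GI50, concentration required for 50% inhibition of growth. The concentration for full growth arrest is given as TGI.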
Tests used:
Test in all cases: NCI anticancer screen, dose series, 48 h
[1] = system: M19-MEL melanoma
[2] = system: U251 CNS
[3] = system: NCI-H522 lung
[4] = system: SF-268 CNS
[5] = system: SNB-19 CNS
[6] = system: HOP-18 NSCLC
[7] = system: DMS 273 small cell lung
[8] = system: SK-MEL-2 melanoma
[9] = system: DU-145 prostate
[10] = system: MCF7 breast

Compound	TGI [1]	TGI [2]	TGI [3]	TGI [4]	TGI [5]	TGI [6]	TGI [7]	TGI [8] [µM]	TGI [9]	GI50 [3]	TGI [10] [µM]	GI50 [6]	GI50 [7]	GI50 [9] [µM]	GI50 [4] [µM]	GI50 [10] [µM]	GI50 [5] [µM]	GI50 [8] [µM]	GI50 [2] [µM]	GI50 [1] [µM]
O=C(/C=C/c1ccccc1)Oc1cccc2cccnc12	> 100 µM	30.8 µM	5.31 µM	13.7 µM	> 75.2 µM	> 100 µM	45.6 µM	–	–	–	–	–	–	–	–	–	–	–	–	–
C/C=C/C(C#N)O[Si](C)(C)C (stereo not given)	> 100 µM	> 100 µM	> 100 µM	> 100 µM	> 100 µM	> 100 µM	> 100 µM	> 100	–	–	–	–	–	–	–	–	–	–	–	–
Cc1nc(C(N)=O)c(N)n1CCN1CCN(C(=O)CCCCCCCCCCNC2N=CNc3nc[nH]c32)CC1 (stereo not given)	> 100 µM	> 100 µM	–	> 100 µM	> 100 µM	> 100 µM	–	44.5	–	–	–	–	–	–	–	–	–	–	–	–
COC1=NCc2ccccc2-c2ccccc21	–	> 100 µM	> 100 µM	> 100 µM	> 100 µM	> 100 µM	> 100 µM	> 100	–	–	–	–	–	–	–	–	–	–	–	–
N#CC(N)=Nc1ccccc1	> 100 µM	> 100 µM	> 100 µM	> 100 µM	> 100 µM	> 100 µM	> 100 µM	> 100	–	–	–	–	–	–	–	–	–	–	–	–
CN1N=CSC12C(=O)N(c1ccccc1)C(=O)N2c1ccccc1 (stereo not given)	> 100 µM	> 100 µM	–	> 100 µM	> 100 µM	9.62 µM	> 100 µM	> 100	–	–	–	–	–	–	–	–	–	–	–	–
Cc1c(/C=N/NC(=O)c2ccccc2O)c(=O)n(-c2ccccc2)n1C	> 100 µM	> 100 µM	> 100 µM	> 100 µM	> 100 µM	> 100 µM	> 100 µM	> 100	–	–	–	–	–	–	–	–	–	–	–	–
COC(=O)/C(=N\NC(C)(C)C)C(C(=O)OC)C(=O)C(=O)Nc1cc(Cl)ccc1Cl (stereo not given)	> 100 µM	> 100 µM	> 100 µM	> 100 µM	> 100 µM	> 100 µM	> 100 µM	> 100	–	–	–	–	–	–	–	–	–	–	–	–
CN(C(=O)/C=C/c1ccccc1)C1C2CN3CCC(O2)C13 (stereo not given)	–	> 100 µM	> 100 µM	> 100 µM	> 100 µM	> 100 µM	> 100 µM	> 100	–	–	–	–	–	–	–	–	–	–	–	–
Cn1c(=O)c(N=Nc2c(=O)n(C)c(=O)n3c2[nH]c2ccccc23)c2[nH]c3ccccc3n2c1=O	> 100 µM	> 100 µM	> 100 µM	> 100 µM	61.1 µM	> 100 µM	> 100 µM	> 100	–	–	–	–	–	–	–	–	–	–	–	–
COC(=O)C1=CO[C@@H](OC2CC(CO)C(O)C(O)C2O)[C@@H]2[C@@H](C)[C@@H](OC(=O)/C=C/c3ccccc3)[C@@H](O)[C@H]12 (stereo not given in full) (tested in a mixture with another compound)	> 100 µM	> 100 µM	> 100 µM	> 100 µM	–	> 100 µM	–	–	–	–	–	–	–	–	–	–	–	–	–	–
Nc1ncnc2c1ncn2C1OC(CSCC(F)(F)F)C(O)C1O (stereo not given)	> 100 µM	> 100 µM	> 100 µM	> 100 µM	> 100 µM	> 100 µM	> 100 µM	> 100	–	–	–	–	–	–	–	–	–	–	–	–
O=C(O)CCNS(=O)(=O)c1ccc(NC(=O)c2ccccc2)cc1	> 100 µM	> 100 µM	> 100 µM	> 100 µM	> 100 µM	> 100 µM	> 100 µM	> 100	–	–	–	–	–	–	–	–	–	–	–	–
Cc1ccc(S(=O)(=O)SC/C=C\CSS(=O)(=O)c2ccc(C)cc2)cc1	> 100 µM and 95.1 µM	66.3 µM and 34.7 µM	15.6 µM and 30.8 µM	> 73.2 µM and 74.4 µM	> 89.3 µM and 77.7 µM	> 100 µM and 82.5 µM	> 43.7 µM and 35.3 µM	> 92.6	> 66.9 µM	3.79 µM and 17.1 µM	> 77.2	> 100 µM and 35.6 µM	3.92 µM and 18.3 µM	–	–	–	–	–	–	–
O=C(NCCCOC(=O)CCCCCCCCC(=O)OCCCNC(=O)NC(=O)c1c[nH]c(=O)[nH]c1=O)NC(=O)c1c[nH]c(=O)[nH]c1=O	> 100 µM	> 100 µM	–	> 100 µM	> 100 µM	> 100 µM	> 100 µM	> 100	–	–	–	–	–	–	–	–	–	–	–	–
O=C(COc1ccccc1Cl)N1N=C(c2ccc(Cl)cc2)CC1(O)c1ccccc1 (stereo not given)	> 100 µM	> 100 µM	> 100 µM	> 100 µM	> 100 µM	–	> 100 µM	> 100	–	–	–	–	–	–	–	–	–	–	–	–
C[N+](C)(C)CCC(=O)CC[N+](C)(C)C	54.5 µM	> 100 µM	29.4 µM	42.9 µM	> 100 µM	31.8 µM	63.6 µM	66.1	–	–	–	–	–	–	–	–	–	–	–	–
C=C(c1ccccc1)C1(O)CCCCC1N (stereo not given)	> 100 µM	> 100 µM	> 100 µM	> 100 µM	> 100 µM	> 100 µM	> 100 µM	> 100	–	–	–	–	–	–	–	–	–	–	–	–
COc1ccc2nccc(C3=CCC4CCN(C(=O)c5ccccc5)C3C4)c2c1 (stereo not given)	> 100 µM	> 100 µM	> 100 µM	> 100 µM	> 100 µM	–	> 100 µM	> 100	–	–	–	–	–	–	–	–	–	–	–	–
Cn1ccnc1CCc1c(Cl)cccc1Cl	> 100 µM	> 100 µM	> 100 µM	> 100 µM	–	> 100 µM	> 100 µM	> 100	–	–	–	–	–	–	–	–	–	–	–	–

Compound	TGI [1]	TGI [2]	TGI [3]	TGI [4]	TGI [5]	TGI [6]	TGI [7]	TGI [8] [µM]	TGI [9]	GI50 [3]	TGI [10] [µM]	GI50 [6]	GI50 [7]	GI50 [9] [µM]	GI50 [4] [µM]	GI50 [10] [µM]	GI50 [5] [µM]	GI50 [8] [µM]	GI50 [2] [µM]	GI50 [1] [µM]
CC1CC(C)CC(C)C(O)/C(C#N)=C/C=C/CC(C2CCCC2C(=O)O)OC(=O)CC(O)C(C)C1 (stereo not given)	0.0532 µM	0.0547 µM and 0.0449 µM	0.0137 µM and < 0.0119 µM	0.311 µM and 0.117 µM	0.109 µM and 0.0359 µM	0.0612 µM	0.11 µM	0.00545	0.659 µM and 0.896 µM	0.00266 µM	0.0436	–	–	0.132	0.0307	0.00614	0.0232	0.00139	–	–
O=C(N/N=C/c1ccccc1O)N/N=C/c1ccccc1O	> 100 µM	> 100 µM	> 100 µM	> 100 µM	> 100 µM	> 100 µM	> 100 µM	> 100	–	–	–	–	–	–	–	–	–	–	–	–
COc1cc(Cl)cc(=O)c(O)c1OC	> 100 µM	> 100 µM	> 64.3 µM	> 100 µM	> 100 µM	> 100 µM	> 100 µM	> 100	–	–	–	–	–	–	–	–	–	–	–	–
COC(=O)c1sc(C(=O)OC)c2c1CS(=O)C2	> 100 µM	> 100 µM	> 100 µM	> 100 µM	> 100 µM	> 100 µM	> 100 µM	> 100	–	–	–	–	–	–	–	–	–	–	–	–
O=C(NCC1CC1)c1ccc(-c2cccc(C(=O)NC3CC3)c2)cc1	–	> 25 µM	> 25 µM	> 25 µM	> 25 µM	–	–	> 25	> 25 µM	> 25 µM	> 25	–	–	> 25	> 25	> 25	> 25	> 25	> 25	–
O=[N+]([O-])c1ccccc1N=Nc1c(O)[nH]c2cccc(C(F)(F)F)c12	–	> 100 µM	69.3 µM	> 100 µM	> 100 µM	–	–	> 100	> 100 µM	–	> 100	–	–	–	–	–	–	–	–	–
Cc1c(OC(C)C(=O)O)ccc2c(-c3ccccc3)cc(=O)oc12 (stereo not given)	> 100 µM	> 100 µM	> 100 µM	> 100 µM	> 100 µM	> 100 µM	–	–	–	–	–	–	–	–	–	–	–	–	–	–
CCc1c(C#N)c(=O)[nH]c(=O)n1CCN1CCN(C(=O)NCCCCCCNC(=O)N2CCN(CCn3c(CC)c(C#N)c(=O)[nH]c3=O)CC2)CC1	> 100 µM	> 100 µM	–	–	> 100 µM	> 100 µM	> 100 µM	–	–	–	–	–	–	–	–	–	–	–	–	–
Cc1cc2c(C)nn(Cc3ccccc3)c2c(C(=O)O)c1C	> 100 µM	> 100 µM	–	> 100 µM	> 100 µM	> 100 µM	> 100 µM	> 100	–	–	–	–	–	–	–	–	–	–	–	–
CCOC(=O)NC(=O)c1cn(CCN2CCN(C(=O)NCCCCCCNC(=O)N3CCN(CCn4cc(C(=O)NC(=O)OCC)c(=O)[nH]c4=O)CC3)CC2)c(=O)[nH]c1=O	> 100 µM	> 100 µM	> 100 µM	> 100 µM	> 100 µM	> 100 µM	> 100 µM	> 100	–	–	–	–	–	–	–	–	–	–	–	–
O=C1Nc2ccccc2C1(O)C/C(=N/O)c1ccc2ccccc2c1 (stereo not given)	> 100 µM	> 100 µM	> 100 µM	> 100 µM	> 100 µM	> 100 µM	–	> 100	–	–	–	–	–	–	–	–	–	–	–	–
CC1=C2C(=C[C@@](C)(CO)[C@@H]2OC(=O)N(C)CCN(C)C(=O)OC(C)(C)C)C(=O)[C@](C)(O)C12CC2	–	46.1 µM	25.2 µM	18.7 µM	> 50 µM	–	–	17.3	32.4 µM	6.27 µM	> 50	–	–	1.78	1.78	3.35	10.9	7.63	5.25	–
CC[O-].CC[O-].O=C([CH-]C(=O)c1ccccc1)CCCCCCCCC(=O)[CH-]C(=O)c1ccccc1.[Ti+4]	> 100 µM	> 100 µM	> 100 µM	> 100 µM	–	–	> 100 µM	> 100	–	> 100 µM	–	–	> 100 µM	–	> 100	–	–	> 100	> 100	> 100
CC(=O)Nc1ccc(-c2cc(C(=O)O)c3cc4ccccc4cc3n2)cc1	–	> 100 µM	> 100 µM	> 100 µM	> 100 µM	–	–	> 100	> 100 µM	–	> 100	–	–	–	–	–	–	–	–	–
Clc1ccc(-c2cn3ccnc3c(-c3ccc(Cl)cc3)n2)cc1	–	57.4 µM	> 100 µM	> 100 µM	> 100 µM	–	–	> 100	> 100 µM	> 100 µM	> 100	–	–	25.3	15.4	11.4	45.8	61.9	12.9	–
CCOC(=O)Oc1c(OC)cc(C(=O)c2ccc(OC)c(O)c2OC)cc1OC	–	> 100 µM	1.99 µM	> 100 µM	> 100 µM	–	–	> 100	> 100 µM	0.311 µM	> 100	–	–	0.885	10.7	0.516	0.821	1.79	0.947	–
CCc1cccc(C)c1NS(=O)(=O)c1ccccc1	> 100 µM	> 100 µM	–	–	–	–	> 100 µM	> 100	–	–	–	–	–	–	–	–	–	–	–	–
CCOC(=O)Cc1nc2ccc3c(c2[nH]c1=O)C(=O)c1ccccc1C3=O	> 100 µM	> 100 µM	> 100 µM	> 100 µM	> 100 µM	91.6 µM	> 100 µM	> 100	–	–	–	–	–	–	–	–	–	–	–	–
c1cc[c]([Sn][c]2ccccc2)cc1	–	42 µM	32.7 µM	25 µM	61 µM	48.8 µM	35.9 µM	37.7	–	14.1 µM	–	21.6 µM	16.8 µM	–	14.5	–	20	15.9	19.4	–
CC(=O)c1c(O)c(C)c(O)c(Cc2c(O)c3c(c(C(=O)/C=C/c4ccccc4)c2O)OC(C)(C)C=C3)c1O	–	14.5 µM	11.5 µM	85.7 µM	19.4 µM	–	–	4.09	41.1 µM	–	19.9	–	–	–	–	–	–	–	–	–

Source: PubChem BioAssay (NCI)
